Patent publication US20230181633A1, “METHODS OF TREATING CANCER USING A COMBINATION OF TUMOR MEMBRANE VESICLES AND METFORMIN” (METACLIPSE THERAPEUTICS CORPORATION, priority 2019, published 2023)

Key:
[1] = tested on: oral squamous cell carcinoma MOC2 cells; assay: MOC2 head and neck cancer model, tumor growth; format: in vivo, C57BL/6J mice; details: MOC2-challenged mice, treatment from Day 3 (FIG. 9A, 9B)
Procedure: C57BL/6J mice were inoculated with 500,000 oral squamous cell carcinoma MOC2 cells s.c. in the hind flank. Tumors were palpable at day 3 post challenge. PBS, MET alone, TMV alone, or a combination of TMV + MET was employed at days 3, 8, 13, 18, and 25. Tumor growth was measured over time. […] Filled circle is PBS treatment group, filled square is MET alone treatment group, filled grey triangle is TMV alone treatment group, upside down triangle is MET + TMV treatment group. n=5 per group, two-way ANOVA with Tukey’s multiple comparison for statistical significance. *p<0.05, **p<0.01.
In the murine head and neck MOC2 cancer model, the TMV vaccine generated from MOC2 tumors was administered at Day 3, while MET was started at Day 3 and continued every other day until end point.

[2] = tested on: 4T1 mouse breast cancer cells; assay: Survival after surgical resection of 4T1 tumors; format: in vivo
Procedure: FIG. 8 is a graph showing survival of mice treated with PBS, TMV alone, MET alone, or TMV+MET after surgical resection of tumors. Mice were challenged 10 days before surgery with 4T1 tumor cells. After tumor establishment, tumors were resected on Day 0. Beginning on Day 5, 50 mg/kg metformin was administered. On Days 5 and 12, 4T1-derived TMVs were administered. […] Solid line is PBS treatment group, dashed line is MET alone, dotted line is TMV alone, dash and dot line is TMV and MET treatment.
Mice were divided into four groups of five mice per group, wherein each group was to be treated with either a PBS control, metformin (MET) alone, 4T1-derived TMV (as described in Example 1) or TMV+MET. Each mouse was challenged with 4T1 mouse breast cancer cells by subcutaneous injection and tumors were later surgically resected (Day 0). On Day 5, mice in the MET and TMV+MET groups were administered 50 mg/kg metformin in drinking water daily until Day 20. On Days 5 and 12, mice in the TMV and TMV+MET groups were administered a dose of TMVs formed from 4T1 cells. Mice were then analyzed for survival (FIG. 8).

4T1 tumor cells = assay: Lung metastasis in 4T1-challenged mice; format: in vivo, mouse
Procedure: FIGS. 6(A-B) is a set of graphs showing the amount of 4T1 tumor cells (FIG. 6A) and metastatic clones (FIG. 6B) obtained in the lungs of 4T1 tumor-challenged mice treated with water, TMV alone, MET alone, or TMV + MET. **p<0.01, ***p<0.001,
4T1-challenged mice were also analyzed for their metastatic potential. Upon sacrificing the mice, the lungs were analyzed for tumor colony forming units […] and overall total tumor cells (FIG. 6B).

[3] = tested on: immune cell subtypes in blood; assay: Immune cell subtypes in blood of 4T1-challenged mice; format: in vivo, mouse
Procedure: FIGS. 2(A-C) is a set of graphs showing percentages of T-cell subtypes in the blood of mice with 4T1 tumor. After 4T1 tumor challenge and treatment with water, TMV alone, MET alone, or TMV+MET, mouse blood samples were analyzed for percentage of CD3+ (FIG. 2A), CD4+ (FIG. 2B), and CD8+ (FIG. 2C) T-cells, in relation to CD45+ T cells. Filled circle is water treatment group, filled square is MET treatment group, filled grey triangle is TMV treatment group, upside down triangle is TMV + MET treatment group.
FIGS. 3(A-B) is a set of Fluorescence Activated Cell Sorting (FACS) plots showing presence of myeloid-derived suppressor cells (MDSCs) (FIG. 3A) and CD3+ cells (FIG. 3B) in the blood of 4T1 tumor-challenged mice.
FIG. 4 is a set of graphs showing amounts of MDSCs (top panel) and CD3+ T cells (bottom panel) in the blood of 4T1 tumor-challenged mice treated with water, TMV alone, MET alone, or TMV+MET. Filled circle is water treatment group, filled square is MET treatment group, filled grey triangle is TMV treatment group, upside down triangle is TMV + MET treatment group. **p<0.01.
The 4T1-challenged mice were further analyzed for immunological effects upon administration of TMV, MET, or both. Blood samples were obtained from mice, and samples were subjected to analysis to determine presence of immune cell subtypes.

SCCVII cells = assay: SCCVII squamous cell tumor challenge, tumor growth over time; format: in vivo, C3H/Hej mice
Procedure: FIGS. 1(A-C) is a set of graphs showing tumor growth over time. […] Tumor growth was measured over time. […] Tumors were palpable at day 3, which is when treatment with PBS, MET alone, TMV alone, or TMV + MET was initiated. The subsequent treatments were employed at days […]. […] Tumors were palpable at day 3, treatment of PBS control, MET alone, TMV alone, or TMV + MET was applied at days 10, 17, 24, 31, and 40. Tumor growth was measured over time. n=5 per group, two-way ANOVA with Tukey’s multiple comparison for statistical significance. For FIGS. 1(A-C), filled circle is PBS treatment group, filled square is MET alone treatment group, filled grey triangle is TMV alone treatment group, upside down triangle is MET + TMV treatment group. *p<0.05, **p<0.01, ***p<0.001.
In the same model (SCCVII), the TMV and MET treatment were delayed and given at Day 10 when the tumors were established (about 50 mm^2) (FIG. 1C).

MOC2 cells = assay: MOC2 spontaneous lung metastasis; format: in vivo, C57BL/6J mice; details: lungs harvested after 25 days of tumor growth (FIG. 10)
Description: C57BL/6J mice were inoculated with 500,000 MOC 2 cells s.c. in the hind flank. […] PBS, MET alone, TMV alone, or a combination of TMV + MET was employed at days 3, 8, 13, 18, and 25. Lungs were harvested and dispersed into single cell suspension after 25 days of tumor growth. Metastatic tumor cells were selected using G418 in vitro for 11-14 days and metastatic cells were quantified using a Nexelcom T4 cell counter.
In the murine head and neck MOC2 cancer model, the TMV vaccine generated from MOC2 tumors was administered at Day 3, while MET was started at Day 3 and continued every other day until end point. […] The lungs from these MOC2-challenged mice were harvested after 25 days of tumor growth and the number of metastatic cells was quantified after suspending the lungs into a single cell suspension (FIG. 10).

**Q.** Which “MOC2 tumor growth / tumor area” value [1] does the source give for `CN(C)C(=N)NC(=N)N` [MET, 3-(diaminomethylidene)-1,1-dimethylguanidine] here?
**A.** no reduction in tumor growth

**Q.** What about the “mouse survival post-surgery (in words)” value ([2]; 4T1 tumors resected Day 0 (FIG. 8)) of the same compound?
**A.** increased mouse survival

**Q.** And the survival ([2]; at day 60 after resection of 4T1 tumors, 50 mg/kg metformin from Day 5 (FIG. 8))?
**A.** 0%

**Q.** And the “lung metastasis: tumor colony forming units” value (4T1 tumor cells; lungs of 4T1-challenged mice at sacrifice (FIG. 6A))?
**A.** not MET alone significantly reduced

**Q.** What about the “lung metastasis: overall total tumor cells” value (4T1 tumor cells; lungs of 4T1-challenged mice at sacrifice (FIG. 6B)) of the same compound?
**A.** not MET alone significantly reduced

**Q.** What about the “amount of myeloid derived suppressor cells (MDSC) in blood samples” value ([3]; 4T1-challenged mice (FIG. 3A, FIG. 4 upper panel)) of the same compound?
**A.** decreased

**Q.** What about the “amount of CD3+ T cells in the blood” value ([3]; 4T1-challenged mice, by week 2, vs PBS control (FIG. 2A)) of the same compound?
**A.** increased

**Q.** What about the “amount of CD4+ T cells in the blood” value ([3]; 4T1-challenged mice, by week 2, vs PBS control (FIG. 2B)) of the same compound?
**A.** increased

**Q.** What about the “amount of CD8+ T cells in the blood” value ([3]; 4T1-challenged mice, by week 2, vs PBS control (FIG. 2C)) of the same compound?
**A.** increased

**Q.** What about the “tumor growth, established tumors” value (SCCVII cells; SCCVII, treatment delayed to Day 10, tumors about 50 mm^2 (FIG. 1C)) of the same compound?
**A.** did not have a significant decrease in growth

**Q.** And the “tumor size (in words)” value (SCCVII cells; SCCVII-challenged mice, treatment from day 3 (FIG. 1B))?
**A.** reduced tumor size

**Q.** What about the “number of metastatic MOC2 cells per lung” value (MOC2 cells) of the same compound?
**A.** did not have a significant reduction
